Assay results from US9963463B2, “Urea-substituted indanes as P38 map kinase inhibitors” (TORRENT PHARMACEUTICALS LIMITED, priority 2014, dated 2018).

Legend:
[1] = target: T1, purified recombinant human p38 alpha MAPK (Homo sapiens, UniProt Q16539); experiment: Inhibition of p38 alpha MAPK activity, TR-FRET kinase assay; format: biochemical; conditions: Concentration 1 μM; read-out: P38α Inhibition
T1 construct: purchased Millipore, USA
How it was run: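 Recombinant human p38α preincubated 15 min at RT with compound (0.5–1.0% DMSO), then 30 nM biotinylated GST-ATF2 and 100 μM ATP added for 60 min at RT. Stopped with EDTA; Eu-anti-phospho-ATF2 and APC-streptavidin detection, 60 min. % inhibition from 665/615 nm TR-FRET ratio.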

[2] = test system: cigarette smoke induced Neutrophil accumulation in BAL Fluid; experiment: Acute mouse model of airway inflammation (tobacco smoke), BAL neutrophils; format: in vivo; conditions: mice, aerosol exposure 25 minutes; for Neutrophil (*10^3 cells/animal): BAL fluid, Mean ± SEM; for % Inhibition: neutrophil vs vehicle group
Excerpt: In vivo efficacy evaluation of compounds in animal model of airway inflammation: The tobacco smoke induced airway inflammation model is used for in-vivo efficacy of compound. Many investigators have used acute tobacco smoke (TS) exposure in rodents as models of airway inflammation for quick screening of anti-inflammatory therapies (J Pharmacol Exp Ther. 2008; 324(3):921-9; J Pharmacol Exp Ther. 2010; 332(3):764-75; Journal of Inflammation 2013, 10(Suppl 1):31 and Eur Respir J Suppl 2006; 663s:3850).
A: Efficacy Studies in Acute Mouse Model of Airway Inflammation
Mice were exposed to tobacco smoke (TS) in an acrylic chamber. Animals were exposed to TS from 8, 12, 16 cigarettes on day 1, day 2, day 3 respectively. From day 4 onwards till day 11, animals were exposed to TS from 20 cigarettes per day. Like human COPD associated inflammation, acute exposure of mice to TS induced significant inflammatory cell, predominantly neutrophil recruitment to lungs as compared to air exposed control mice (BALF neutrophil levels, nil in air control group vs 178±29.1*10^3 cells/animal in smoke exposed vehicle group).
Lung delivery of test compound was achieved by whole body aerosol exposure for 25 minutes in a chamber. Mice were divided in different dose groups and exposed in a chamber for 25 minutes with vehicle or Compound 12 (0.3 mg/ml) or Compound 12 (3 mg/ml). A total quantity of 3.5 ml of either vehicle or test compound formulation was nebulized in a chambers to respective groups over 25 mins period. Test compounds were administered 2 hr prior to TS exposure from day 6 to day 11. Bronchoalveolar lavage (BAL) was performed 24 hr post last TS exposure.
Trachea of animal was cannulated using catheter. Phosphate Buffer Saline (PBS) was used as lavage fluid. A volume of 0.5 ml was gently instilled and withdrawn and collected in microcentrifuge tube placed on ice. This procedure was repeated further 2 times.
Lavage fluid was separated from cells by centrifugation and supernatant separated. The cell pallet was resuspended in known volume of PBS. Cells in aliquot were stained using Turk solution and total cell numbers were calculated by counting Turk stained aliquot under microscope using haemocytometer.
The residual cell suspension was resuspended and slides prepared using cyto centrifuge technique (Cytospin 4, Thermo Shandon). The slides were then fixed with methanol, air dried and stained with May Grunwald Giemsa stain. Up to 300 cells were counted and differentiated using standard morphometric techniques under light microscopy.
All results are presented at individual data for each animal and mean value calculated for each group. Percentage inhibition for the neutrophil was calculated for Compound 12 treatment group against vehicle group. Results are summarized herein below: […]

[3] = test system: cigarette smoke induced inflammatory cell accumulation in BAL Fluid; experiment: Acute guinea pig model of airway inflammation (tobacco smoke), BAL neutrophils; format: in vivo, Guinea pigs; conditions: acute TS model, 6 mg/ml, aerosol exposure 75 minutes
Excerpt: Observation: It was observed that compound of present invention was found effective in inhibition of neutophil influx, an index of pulmonary inflammation. […] B. (I) Efficacy Studies in Acute Guinea Pig Model of Airway Inflammation
Guinea pigs were exposed to tobacco smoke (TS) in an acrylic chamber. Animals were exposed to TS from 5, 10, 15 cigarettes on day 1, day 2, day 3 respectively. From day 4 onwards till day 11, animals were exposed to TS from 15 cigarettes per day. […]
Lung delivery of test compound was achieved by whole body aerosol exposure for 75 minutes in a chamber. […] A total quantity of 7.0 ml of either vehicle or test compound formulation (suspension formulation with D90<5μ, with Malvern Mastersizer®) was nebulized in chambers to respective groups over 75 mins period. […]
(§1) Lavage fluid was separated from cells by centrifugation and supernatant separated. […] Cells in aliquot were stained using Turk solution and total cell numbers were calculated by counting Turk stained aliquot under microscope using haemocytometer.
The residual cell suspension was resuspended and slides prepared using cyto centrifuge technique (Cytospin 4, Thermo Shandon). […] Up to 300 cells were counted and differentiated using standard morphometric techniques under light microscopy. All results are presented at individual data for each animal and mean value calculated for each group. […]

[4] = test system: BALF fluid inflammatory cell influx and lung function; experiment: Chronic model of COPD in guinea pigs (tobacco smoke and LPS, 18 weeks); format: in vivo; conditions: guinea pig, chronic TS/LPS COPD model, 3 mg/ml, aerosol exposure 50 minutes
Excerpt: Observation: It was observed that compound of present invention was found effective in inhibition of neutrophil influx, an index of pulmonary inflammation in guinea pig model of airway inflammation. […] (II) Efficacy Studies in Chronic Model of COPD in Guinea Pigs.
Guinea pigs were exposed to tobacco smoke (TS) and Lipopolysaccharide (LPS) in an acrylic chamber. Exposure to TS and LPS is given in following manner in a week for a total of 18 weeks.
Lung delivery of test material was achieved by whole body aerosol exposure for 50 minutes in a chamber. Guinea pig were divided in different dose groups and exposed to either vehicle or compound no 43 (3 mg/ml). A total quantity of 7.0 ml of either vehicle or compound no 43 (suspension formulation with D90<5μ, with Malvern Mastersizer®) was nebulized in chambers to respective groups over 50 mins period. Compound no 43 or vehicle was administered 2 hr prior to TS/LPS exposure once daily from week 9 to week 18. Control animals were exposed to room air instead of TS and PBS instead of LPS. Lung function and bronchoalveolar lavage (BAL) for each animal was performed 24 hr post last TS exposure. […]
as §1
The residual cell suspension was resuspended and slides prepared using cyto centrifuge technique (Cytospin 4, Thermo Shandon). […] Up to 300 cells were counted and differentiated using standard morphometric techniques under light microscopy.
All results are presented at individual data for each animal and mean value calculated for each group. Percentage inhibition for the neutrophil was calculated for compound no 43 treatment group against vehicle group. […]

T1 sequence (Q16539 whole entry): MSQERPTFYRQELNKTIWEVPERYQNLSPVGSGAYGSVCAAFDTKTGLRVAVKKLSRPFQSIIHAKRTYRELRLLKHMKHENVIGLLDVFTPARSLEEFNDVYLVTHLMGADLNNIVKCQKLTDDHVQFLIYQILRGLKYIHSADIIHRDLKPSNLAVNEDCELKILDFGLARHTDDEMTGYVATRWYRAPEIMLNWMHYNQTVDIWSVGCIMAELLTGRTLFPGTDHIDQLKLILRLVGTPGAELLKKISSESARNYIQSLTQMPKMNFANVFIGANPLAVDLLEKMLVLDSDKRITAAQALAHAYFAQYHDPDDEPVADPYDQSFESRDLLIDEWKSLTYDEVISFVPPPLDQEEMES

For `Cc1ccc(-n2nc(C(C)(C)C)cc2NC(=O)Nc2ccc(OCCN3CCN(CC4CC4)C(=O)C3)c3c2CCC3)cc1` [Compound 12, 1-[3-tert-butyl-1-(4-methylphenyl)-1H-pyrazol-5-yl]-3-(7-{2-[4-(cyclopropylmethyl)-3-oxopiperazin-1-yl]ethoxy}-2,3-dihydro-1H-inden-4-yl)urea], the inhibition at 1 µM [1] was 80 to 100%, the “Neutrophil (*10^3 cells/animal)” value ([2]; formulation strength 0.3 mg/ml) was 107 ± 18.5 *10^3 cells/animal and the “Neutrophil (*10^3 cells/animal)” value ([2]; formulation strength 3 mg/ml) was 69.6 ± 11.1 *10^3 cells/animal. For the same molecule, the “% Inhibition” value ([2]; formulation strength 0.3 mg/ml) was 40% and the “% Inhibition” value ([2]; formulation strength 3 mg/ml) was 61%.

`CCS(=O)(=O)Nc1cc(C(C)(C)C)cc(NC(=O)Nc2ccc(OCCN3CCN(CC4CC4)C(=O)C3)c3c2CCC3)c1OC` [Compound 43, N-(5-tert-butyl-3-{[(7-{2-[4-(cyclopropylmethyl)-3-oxopiperazin-1-yl]ethoxy}-2,3-dihydro-1H-inden-4-yl)carbamoyl]amino}-2-methoxyphenyl)ethanesulfonamide] was tested, and the inhibition at 1 µM [1] was 80 to 100%, the “Effect on inflammatory cell influx Neutrophil (*10^6cells)” value ([3]; BAL fluid, Mean ± SEM) was 0.8 ± 0.20 *10^6cells and the “Effect on inflammatory cell influx % inhib^n” value ([3]; neutrophil vs vehicle group) was 57%. For the same molecule, the “Neutrophil (*10^6cells)” value ([4]; BALF, once daily week 9 to 18, Mean ± SEM) was 4.0 ± 0.70 *10^6cells, the “lung function parameters (FRC, RV, IC/TLC ratio, RV/TLC ratio)” value ([4]; FIGS. 1A, 1B, 2A, 2B) was “significantly improves lung function aspects” and the “% inhib^n” value ([4]; neutrophil vs vehicle group) was 32%.
